Bridges are numbered along the chain shown (N, C = ends). Where no end group is shown, it is not given here.
Columns and labels:
[1] = test system: Lactobacillus brevis 1105; experiment: HBD-3 activity in beer fermentations: brew samples seeded with bacteria incubated with HBD-3; type: cell-based; conditions: HBD-3 5 μg/mL; day 14 brew samples; seeded day 6 at 10^2 and 10^4 cfu/ml; two independent fermentations
[2] = test system: beer spoilage bacteria; experiment: Beer spoilage challenge in the bottled product (pilot scale 50 L fermentations); conditions: bottled product from CM-PGK-51 fermentation; no freeze-thawing cycle; larger than usual amounts of bacteria
Protocol: Pilot scale fermentations (50 L) were carried out using CM-PGK-51 as a starter culture.

[3] = test system: lager yeast CBMS; experiment: Cytotoxic effects of HBD-3 against the lager yeast; type: cell-based, Saccharomyces pastorianus; conditions: data not shown
Protocol: (§1) To test the activity of β-Defensin-3 against beer-spoiling bacteria, a defensin bioassay was carried out as described in the Methods section. Since our goal was to express HBD-3 in lager yeast, the cytotoxic effects of HBD-3 against the lager yeast CBMS was also examined. […] The minimum inhibitory concentration (MIC) values for HBD-3 against Lb. brevis and Lb. malefermentas were 5 μg/ml 0.5 μg/ml respectively. The LD-100 and MIC were lower than that required against other gram positive strains such as S. mutans, S. pyogenes, and […]. […] (data not shown).

[4] = test system: Lb. brevis; experiment: In situ antimicrobial activity of HBD-3 secreted from yeast strains under fermentation conditions; type: cell-based, Lactobacillus brevis; conditions: summary statement, spoilage bacteria
Protocol: Yeast strains were grown up from single colonies in 3 mL YEP-Maltose medium (YEPM) and expanded to 2 liters. 40% (w/v) wort was reconstituted in water from spray-dried malt (Belgium) supplemented with 1 mM Zinc and autoclaved. The wort was diluted to give 1.02-1.060 g/mL density (10-15° Plato), and aerated. The yeast harvested from the 2 liter YEPM medium was resuspended in the diluted wort to give a yeast concentration of 1−1.5×10^7 cells/mL in either 250 ml sterile glass cylinders or in 2 L cylindro-conical EBC vessels. Wort was aerated once with compressed air, bubbling from the bottom of the vessel and anaerobic conditions were maintained by overlying with mineral oil. Flasks were incubated at a 45° angle, and incubated at 11-13° C. The density of the solution was measured every other day for 14 days. Samples were also used for the measurement of HBD-3 in the medium. At the end of the brewing period, yeast were recovered and stored for re-pitching if required. To test the efficacy of the HBD-3-yeast to prevent beer spoilage, individual beer spoilage bacterial strains (10^3/mL) were introduced along with pitching yeast. The surviving bacteria were quantified every other day along with viable yeast cells in the brew. The physical and chemical characteristics of the brew as well as taste and palatability were also measured with the help of healthy volunteers. […]

[5] = test system: Lactobacillus brevis; type: cell-based
Protocol: (§2) Cultures of Lactobacillus brevis L1055 or a control bacterium Staphylococcus aureus-were cultured at 37° C. overnight in MRS media (10 g litre^−1 universal peptone, 5 g litre^−1 meat extract, 5 g litre^−1 yeast extract, 20 g litre^−1 D(+)-glucose, 2 g litre^−1 K2HPO4, 2 g litre^−1 diammonium hydrogen citrate, 5 g litre NaOAc, 0.1 g litre^−1 MgSO4, 0.05 g litre^−1 MnSO4, final pH 6.5+/−0.2 at 37° C.). To prevent yeast growth in samples taken from fermentations seeded with L. brevis, the MRS medium was supplemented with cycloheximide at 10 μg/ml. The cultures were diluted to give a final densitiy of approximately 10^3 cells/mL. Synthetic HBD (0.5-10 μg/mL) was added to the bacterial cultures in a final volume of 100 μl volumes. CMBS cultures containing the pGREG, HBD-3-505V or HBD-3-506V were grown in overnight synthetic medium plus galactose (2%). The supernatants were concentrated (1000-fold) using molecular filtration membranes [Molecular Weight Cut Off (MWCO) 2000] ensuring all unspent sugar was removed from the medium. The concentrated supernatants were added to the bacterial cultures as described above. Following a two-hour incubation at 37° C., the number of bacterial colonies in each sample was determined following incubation on MRS plates containing cycloheximide at 37° C. for 48 hrs.
as §1

[6] = test system: Lactobacillus malifermentus; type: cell-based
Protocol: as §2, §1

[7] = synthetic HBD-3, two-hour incubation at 37° C.

For “GIINTLQKYYCRVRGGRCAVLSCLPKEEQIGKCSTRGRKCCRRKK (disulfide 11-40, 18-33, 23-41 (inferred)) [HBD-3, human β-defensin-3]”, the “reduction of bacterial load in the wort” value [1] was 100 fold, the “protective effects in beer spoilage challenge” value [2] was “did not reveal any protective effects” and the “HBD-3 concentrations at which lager yeasts were resistant” value [3] was “up to 100 μg/ml”. The “reduction of bacterial load after quick freezing of the brew” value [4] was 90-95%, the “minimum inhibitory concentration (MIC)” value ([5]; synthetic HBD-3) was 5 µg/mL and the “LD-100 (effectively killed at concentration)” value [5, 7] was 10 µg/mL. For the same sequence, the “minimum inhibitory concentration (MIC)” value ([6]; synthetic HBD-3) was 0.5 µg/mL and the “LD-100 (effectively killed at concentration)” value [6, 7] was 1 µg/mL.
